Test results as given in PubChem BioAssay (NCI).
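All cell lines were grown in 96-well plates and treated with compound for 48 hours. The concentration for full growth arrest is given as TGI.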

What was measured:
Assay in all cases: DTP human tumour cell line panel, 48 h
UACC-257 melanoma = tested on: UACC-257 melanoma
SF-268 CNS = tested on: SF-268 CNS
SNB-19 CNS = tested on: SNB-19 CNS
UO-31 renal = tested on: UO-31 renal
SNB-75 CNS = tested on: SNB-75 CNS
HT29 colon = tested on: HT29 colon
LOX IMVI melanoma = tested on: LOX IMVI melanoma
A549 NSCLC = tested on: A549 NSCLC
NCI-H226 lung = tested on: NCI-H226 lung
RXF 393 renal = tested on: RXF 393 renal
MDA-MB-231 breast = tested on: MDA-MB-231 breast
HL-60(TB) leukemia = tested on: HL-60(TB) leukemia
MOLT-4 leukemia = tested on: MOLT-4 leukemia
HS 578T breast = tested on: HS 578T breast
HCT-116 colon = tested on: HCT-116 colon
NCI/ADR-RES ovarian = tested on: NCI/ADR-RES ovarian
KM12 colon = tested on: KM12 colon
EKVX NSCLC = tested on: EKVX NSCLC
IGROV1 ovarian = tested on: IGROV1 ovarian
PC-3 prostate = tested on: PC-3 prostate
SK-MEL-28 melanoma = tested on: SK-MEL-28 melanoma
UACC-62 melanoma = tested on: UACC-62 melanoma
ACHN renal = tested on: ACHN renal
OVCAR-8 ovarian = tested on: OVCAR-8 ovarian
CAKI-1 renal = tested on: CAKI-1 renal
TK-10 renal = tested on: TK-10 renal
SN12C renal = tested on: SN12C renal
OVCAR-4 ovarian = tested on: OVCAR-4 ovarian
SF-295 CNS = tested on: SF-295 CNS
SR leukemia = tested on: SR leukemia
OVCAR-5 ovarian = tested on: OVCAR-5 ovarian
CCRF-CEM leukemia = tested on: CCRF-CEM leukemia
MALME-3M melanoma = tested on: MALME-3M melanoma
HCC-2998 colon = tested on: HCC-2998 colon
MDA-MB-435 = tested on: MDA-MB-435
786-0 renal = tested on: 786-0 renal
SW-620 colon = tested on: SW-620 colon
RPMI-8226 leukemia = tested on: RPMI-8226 leukemia
HCT-15 colon = tested on: HCT-15 colon
MDA-N = tested on: MDA-N
DU-145 prostate = tested on: DU-145 prostate
A498 renal = tested on: A498 renal
K-562 leukemia = tested on: K-562 leukemia
HOP-92 NSCLC = tested on: HOP-92 NSCLC
HOP-62 NSCLC = tested on: HOP-62 NSCLC
COLO 205 colon = tested on: COLO 205 colon
U251 CNS = tested on: U251 CNS
T-47D breast = tested on: T-47D breast
BT-549 breast = tested on: BT-549 breast
OVCAR-3 ovarian = tested on: OVCAR-3 ovarian
NCI-H522 lung = tested on: NCI-H522 lung
M14 melanoma = tested on: M14 melanoma
NCI-H23 lung = tested on: NCI-H23 lung
SK-MEL-2 melanoma = tested on: SK-MEL-2 melanoma
SK-OV-3 ovarian = tested on: SK-OV-3 ovarian
SK-MEL-5 melanoma = tested on: SK-MEL-5 melanoma
MCF7 breast = tested on: MCF7 breast
SF-539 CNS = tested on: SF-539 CNS
NCI-H460 lung = tested on: NCI-H460 lung

Compound: Cc1cc(Cc2cc(Cc3cc(C)cc(C(C)(C)C)c3O)c(C)cc2C)c(O)c(C(C)(C)C)c1
- TGI (UACC-257 melanoma): 34.8 µM
- TGI (SF-268 CNS): 35.4 µM
- TGI (SNB-19 CNS): 31.9 µM
- TGI (UO-31 renal): 32 µM
- TGI (SNB-75 CNS): 23.9 µM
- TGI (HT29 colon): 34.7 µM
- TGI (LOX IMVI melanoma): 41.9 µM
- TGI (A549 NSCLC): 30.8 µM
- TGI (NCI-H226 lung): 31.5 µM
- TGI (RXF 393 renal): 24.8 µM
- TGI (MDA-MB-231 breast): > 100 µM
- TGI (HL-60(TB) leukemia): 46.9 µM
- TGI (MOLT-4 leukemia): > 100 µM
- TGI (HS 578T breast): 52 µM
- TGI (HCT-116 colon): 30 µM
- TGI (NCI/ADR-RES ovarian): 42.4 µM
- TGI (KM12 colon): 34.7 µM
- TGI (EKVX NSCLC): 34.5 µM
- TGI (IGROV1 ovarian): 40.5 µM
- TGI (PC-3 prostate): > 100 µM
- TGI (SK-MEL-28 melanoma): 37 µM
- TGI (UACC-62 melanoma): 28.1 µM
- TGI (ACHN renal): 30.3 µM
- TGI (OVCAR-8 ovarian): 75.4 µM
- TGI (CAKI-1 renal): 42.9 µM
- TGI (TK-10 renal): 55.1 µM
- TGI (SN12C renal): 31.7 µM
- TGI (OVCAR-4 ovarian): 25.4 µM
- TGI (SF-295 CNS): 39.4 µM
- TGI (SR leukemia): 70.6 µM
- TGI (OVCAR-5 ovarian): 42.9 µM
- TGI (CCRF-CEM leukemia): 48.3 µM
- TGI (MALME-3M melanoma): 31.7 µM
- TGI (HCC-2998 colon): 27.1 µM
- TGI (MDA-MB-435): 26.2 µM
- TGI (786-0 renal): 31.6 µM
- TGI (SW-620 colon): 40.8 µM
- TGI (RPMI-8226 leukemia): 65 µM
- TGI (HCT-15 colon): 42 µM
- TGI (MDA-N): 35 µM
- TGI (DU-145 prostate): 27.6 µM
- TGI (A498 renal): 30.6 µM
- TGI (K-562 leukemia): 45 µM
- TGI (HOP-92 NSCLC): 29.2 µM
- TGI (HOP-62 NSCLC): 36.2 µM
- TGI (COLO 205 colon): 36.7 µM
- TGI (U251 CNS): > 100 µM
- TGI (T-47D breast): 34.8 µM
- TGI (BT-549 breast): 40.6 µM
- TGI (OVCAR-3 ovarian): 32.9 µM
- TGI (NCI-H522 lung): 34 µM
- TGI (M14 melanoma): 33.8 µM
- TGI (NCI-H23 lung): 37.9 µM
- TGI (SK-MEL-2 melanoma): > 100 µM
- TGI (SK-OV-3 ovarian): 35.6 µM
- TGI (SK-MEL-5 melanoma): 30.2 µM
- TGI (MCF7 breast): 27.2 µM

Compound: COc1cccc(N=Cc2cc(OC)c(OC)c(OC)c2)c1
- TGI (UACC-257 melanoma): > 100 µM
- TGI (SF-539 CNS): > 100 µM
- TGI (SF-268 CNS): > 100 µM
- TGI (UO-31 renal): > 100 µM
- TGI (SNB-75 CNS): > 100 µM
- TGI (HT29 colon): > 100 µM
- TGI (LOX IMVI melanoma): > 100 µM
- TGI (A549 NSCLC): > 100 µM
- TGI (NCI-H226 lung): > 100 µM
- TGI (RXF 393 renal): > 100 µM
- TGI (MDA-MB-231 breast): > 100 µM
- TGI (HL-60(TB) leukemia): > 100 µM
- TGI (MOLT-4 leukemia): > 100 µM
- TGI (HS 578T breast): > 100 µM
- TGI (HCT-116 colon): > 100 µM
- TGI (NCI/ADR-RES ovarian): > 100 µM
- TGI (KM12 colon): > 100 µM
- TGI (EKVX NSCLC): > 100 µM
- TGI (IGROV1 ovarian): > 100 µM
- TGI (PC-3 prostate): > 100 µM
- TGI (SK-MEL-28 melanoma): > 100 µM
- TGI (ACHN renal): > 100 µM
- TGI (OVCAR-8 ovarian): > 100 µM
- TGI (CAKI-1 renal): > 100 µM
- TGI (TK-10 renal): > 100 µM
- TGI (SN12C renal): > 100 µM
- TGI (OVCAR-4 ovarian): > 100 µM
- TGI (SF-295 CNS): > 100 µM
- TGI (SR leukemia): > 100 µM
- TGI (OVCAR-5 ovarian): > 100 µM
- TGI (CCRF-CEM leukemia): > 100 µM
- TGI (MALME-3M melanoma): > 100 µM
- TGI (HCC-2998 colon): > 100 µM
- TGI (MDA-MB-435): > 100 µM
- TGI (786-0 renal): > 100 µM
- TGI (SW-620 colon): > 100 µM
- TGI (RPMI-8226 leukemia): > 100 µM
- TGI (HCT-15 colon): > 100 µM
- TGI (MDA-N): > 100 µM
- TGI (DU-145 prostate): > 100 µM
- TGI (A498 renal): > 100 µM
- TGI (K-562 leukemia): > 100 µM
- TGI (HOP-92 NSCLC): > 100 µM
- TGI (HOP-62 NSCLC): > 100 µM
- TGI (NCI-H460 lung): > 100 µM
- TGI (COLO 205 colon): > 100 µM
- TGI (U251 CNS): > 100 µM
- TGI (T-47D breast): > 100 µM
- TGI (BT-549 breast): > 100 µM
- TGI (OVCAR-3 ovarian): > 100 µM
- TGI (NCI-H522 lung): > 100 µM
- TGI (M14 melanoma): > 100 µM
- TGI (NCI-H23 lung): > 100 µM
- TGI (SK-MEL-2 melanoma): > 100 µM
- TGI (SK-OV-3 ovarian): > 100 µM
- TGI (SK-MEL-5 melanoma): > 100 µM
- TGI (MCF7 breast): > 100 µM

Compound: CCCc1[nH]nc(C(N)=O)c1N=NN(C)C
- TGI (UACC-257 melanoma): > 100 µM
- TGI (SF-539 CNS): > 100 µM
- TGI (SF-268 CNS): > 100 µM
- TGI (SNB-19 CNS): > 100 µM
- TGI (UO-31 renal): > 100 µM
- TGI (SNB-75 CNS): > 100 µM
- TGI (HT29 colon): > 100 µM
- TGI (LOX IMVI melanoma): > 100 µM
- TGI (A549 NSCLC): > 100 µM
- TGI (NCI-H226 lung): > 100 µM
- TGI (RXF 393 renal): > 100 µM
- TGI (MDA-MB-231 breast): > 100 µM
- TGI (HL-60(TB) leukemia): > 100 µM
- TGI (MOLT-4 leukemia): 49 µM
- TGI (HS 578T breast): > 100 µM
- TGI (HCT-116 colon): > 100 µM
- TGI (NCI/ADR-RES ovarian): > 100 µM
- TGI (KM12 colon): > 100 µM
- TGI (EKVX NSCLC): > 100 µM
- TGI (IGROV1 ovarian): > 100 µM
- TGI (PC-3 prostate): > 100 µM
- TGI (SK-MEL-28 melanoma): > 100 µM
- TGI (UACC-62 melanoma): > 100 µM
- TGI (ACHN renal): > 100 µM
- TGI (OVCAR-8 ovarian): > 100 µM
- TGI (CAKI-1 renal): > 100 µM
- TGI (TK-10 renal): > 100 µM
- TGI (SN12C renal): > 100 µM
- TGI (OVCAR-4 ovarian): > 100 µM
- TGI (SF-295 CNS): > 100 µM
- TGI (SR leukemia): 40.6 µM
- TGI (CCRF-CEM leukemia): > 100 µM
- TGI (MALME-3M melanoma): > 100 µM
- TGI (HCC-2998 colon): > 100 µM
- TGI (MDA-MB-435): > 100 µM
- TGI (786-0 renal): > 100 µM
- TGI (SW-620 colon): > 100 µM
- TGI (RPMI-8226 leukemia): > 100 µM
- TGI (HCT-15 colon): > 100 µM
- TGI (MDA-N): > 100 µM
- TGI (DU-145 prostate): > 100 µM
- TGI (A498 renal): > 100 µM
- TGI (K-562 leukemia): > 100 µM
- TGI (HOP-92 NSCLC): > 100 µM
- TGI (HOP-62 NSCLC): > 100 µM
- TGI (COLO 205 colon): > 100 µM
- TGI (U251 CNS): > 100 µM
- TGI (T-47D breast): > 100 µM
- TGI (BT-549 breast): > 100 µM
- TGI (OVCAR-3 ovarian): > 100 µM
- TGI (NCI-H522 lung): 74.9 µM
- TGI (M14 melanoma): > 100 µM
- TGI (NCI-H23 lung): > 100 µM
- TGI (SK-MEL-2 melanoma): > 100 µM
- TGI (SK-OV-3 ovarian): > 100 µM
- TGI (SK-MEL-5 melanoma): > 100 µM
- TGI (MCF7 breast): 80 µM
